Assay results published in patent US11958865B1, “Leucine-rich repeat kinase 2 (LRRK2) inhibitors” (H. Lundbeck A/S, priority 2022, dated 2024).

Experiments:
LRRK2 WT [1] = biological target: T1, LRRK2 WT (Homo sapiens (Human), UniProt Q5S007); assay: LRRK2 wild-type LanthaScreen TR-FRET kinase activity assay; assay type: biochemical; conditions: 1 nM kinase, 1.3 mM ATP, n≥2 tests
LRRK2 WT [2] = biological target: T1, LRRK2 WT; assay: LRRK2 wild-type ADP-Glo kinase assay; assay type: biochemical; conditions: read-out: LRRK2 WT ADPGlo IC50
[3] = tested on: panel of 403 wild type kinases; assay: Broad kinase selectivity, KINOMEscan scanMAX panel; assay type: binding, primarily of human origin; conditions: 10 nM
Experimental: Protein kinase profiling of the inhibitors (Fabian, M. A. et al. A small molecule-kinase interaction map for clinical kinase inhibitors. Nat. Biotechnol. 23, 329-336 (2005)) were undertaken at a concentration of 0.010 μM and carried out in Eurofins DiscoverX KINOMEscan scanMAX panel of 403 wild type kinases (primarily of human origin) covering AGC (PKA, PKG, PKC family kinases), CAMK (Calcium/calmodulin-dependent protein kinases), CK1 (Casein kinase 1 kinases), CMGC (CDK, MAPK, GSK3, CLK families), STE (homologs of yeast Sterile 7, Sterile 11, Sterile 20 kinases), TK (Tyrosine kinases), TKL (Tyrosine kinase-like kinases), lipid and atypical kinase families.
Selectivity Score or S-score is a quantitative measure of compound selectivity. It was calculated by dividing the number of kinases that a compound binds to by the total number of distinct kinases tested, excluding mutant variants. S=Number of hits/Number of assays. This value can be calculated using % Ctrl as a potency threshold (below) and provides a quantitative method of describing compound selectivity to facilitate comparison of different compounds.

[4] = tested on: pooled donor, cryopreserved hepatocytes; assay: Hepatocyte intrinsic clearance assay; assay type: in vitro ADME, Human; conditions: based on hepatocyte CLint values of Table 5
Procedure, shortened: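 Compound (0.05 μM final, 0.05% organic) was incubated with pooled-donor cryopreserved hepatocytes (1×10^6/mL) in supplemented Leibovitz L-15, pH 7.4, at 37° C with shaking for 2 h. Samples were taken from 1 to 120 min, quenched in acetonitrile and analyzed by LC-MS/MS.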

[5] = 0.5 nM kinase, 1.0 mM ATP, IC50=Ki,app+[E]/2, n≥2 tests

T1 sequence (Q5S007 970-2527): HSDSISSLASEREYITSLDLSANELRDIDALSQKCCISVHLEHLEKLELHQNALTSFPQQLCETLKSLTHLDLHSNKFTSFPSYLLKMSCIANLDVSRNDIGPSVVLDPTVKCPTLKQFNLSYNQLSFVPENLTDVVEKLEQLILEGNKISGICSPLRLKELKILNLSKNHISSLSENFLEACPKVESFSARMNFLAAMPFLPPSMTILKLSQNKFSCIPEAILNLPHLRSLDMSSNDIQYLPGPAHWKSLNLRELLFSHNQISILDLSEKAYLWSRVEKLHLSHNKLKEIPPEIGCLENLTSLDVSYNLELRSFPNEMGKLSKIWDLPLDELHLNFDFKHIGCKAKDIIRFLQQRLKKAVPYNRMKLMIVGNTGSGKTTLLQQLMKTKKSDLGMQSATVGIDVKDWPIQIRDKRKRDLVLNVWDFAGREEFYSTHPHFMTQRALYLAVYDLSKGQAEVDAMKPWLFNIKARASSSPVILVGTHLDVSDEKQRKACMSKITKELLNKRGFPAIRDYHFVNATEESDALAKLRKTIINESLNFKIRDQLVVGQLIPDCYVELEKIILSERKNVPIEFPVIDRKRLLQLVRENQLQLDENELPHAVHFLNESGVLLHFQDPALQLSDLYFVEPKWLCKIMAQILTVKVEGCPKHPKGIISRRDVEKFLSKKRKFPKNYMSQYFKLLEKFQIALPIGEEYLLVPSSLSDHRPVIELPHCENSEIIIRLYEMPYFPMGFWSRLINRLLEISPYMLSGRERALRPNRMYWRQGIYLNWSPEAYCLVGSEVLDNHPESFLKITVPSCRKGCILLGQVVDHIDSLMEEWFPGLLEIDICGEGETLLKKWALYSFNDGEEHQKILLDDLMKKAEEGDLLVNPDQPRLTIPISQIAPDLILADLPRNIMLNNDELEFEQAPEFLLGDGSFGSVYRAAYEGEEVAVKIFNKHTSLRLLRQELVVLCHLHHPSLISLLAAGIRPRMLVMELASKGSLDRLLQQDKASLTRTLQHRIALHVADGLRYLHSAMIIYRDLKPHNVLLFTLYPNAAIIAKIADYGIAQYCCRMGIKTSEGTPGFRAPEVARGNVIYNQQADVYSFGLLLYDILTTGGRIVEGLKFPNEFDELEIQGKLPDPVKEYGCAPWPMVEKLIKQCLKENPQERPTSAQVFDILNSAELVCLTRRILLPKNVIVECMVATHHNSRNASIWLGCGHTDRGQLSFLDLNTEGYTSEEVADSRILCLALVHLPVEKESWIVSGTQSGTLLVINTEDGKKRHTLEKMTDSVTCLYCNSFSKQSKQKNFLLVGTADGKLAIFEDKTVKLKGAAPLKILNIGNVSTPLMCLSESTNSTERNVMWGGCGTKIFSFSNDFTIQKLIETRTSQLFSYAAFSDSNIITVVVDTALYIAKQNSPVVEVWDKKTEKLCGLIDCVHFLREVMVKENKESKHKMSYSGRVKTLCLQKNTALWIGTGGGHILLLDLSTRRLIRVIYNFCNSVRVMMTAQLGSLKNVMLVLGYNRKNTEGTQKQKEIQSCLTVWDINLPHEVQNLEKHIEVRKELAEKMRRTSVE

Structure (SMILES) | IC50 (LRRK2 WT [1]) | IC50 (LRRK2 WT [2]; [5]) | further results
COc1ncccc1-n1nc2c(c1C)Nc1ncc3c(Cl)nn(c3n1)CCCO2 [Example 1, 8-Chloro-2-(2-methoxypyridin-3-yl)-3-methyl-2,4,12,13-tetrahydro-11H-5,7-(azenometheno)dipyrazolo[3,4-b:5′,1′-g][1]oxa[4,6,8]triazacycloundecine] | 1.1 nM | 0.46 nM | Selectivity Score S(1) ([3]; hits with % Ctrl <1 / 403 non-mutant kinases): 0.005; Selectivity Score S(10) ([3]; hits with % Ctrl <10 / 403 non-mutant kinases): 0.01; Selectivity Score S(35) ([3]; hits with % Ctrl <35 / 403 non-mutant kinases): 0.03; Number of Hits, S(1) ([3]; kinases with % Ctrl <1, 403 non-mutant kinases, includes LRRK2 WT): 2; Number of Hits, S(10) ([3]; kinases with % Ctrl <10, 403 non-mutant kinases): 4; Number of Hits, S(35) ([3]; kinases with % Ctrl <35, 403 non-mutant kinases): 12
COc1nccc(C)c1-n1nc2c(c1C)Nc1ncc3c(Cl)nn(c3n1)CCCO2 [Example 7, 8-Chloro-2-(2-methoxy-4-methylpyridin-3-yl)-3-methyl-2,4,12,13-tetrahydro-11H-5,7-(azenometheno)dipyrazolo[3,4-b:5′,1′-g][1]oxa[4,6,8]triazacycloundecine] | 6.9 nM | 0.78 nM | –
COc1ncc(C)cc1-n1nc2c(c1C)Nc1ncc3c(Cl)nn(c3n1)CCCO2 [Example 12, 8-Chloro-2-(2-methoxy-5-methylpyridin-3-yl)-3-methyl-2,4,12,13-tetrahydro-11H-5,7-(azenometheno)dipyrazolo[3,4-b:5′,1′-g][1]oxa[4,6,8]triazacycloundecine] | 0.4 nM | 0.63 nM | –
COc1nc(C)ccc1-n1nc2c(c1C)Nc1ncc3c(Cl)nn(c3n1)CCCO2 [Example 13, 8-Chloro-2-(2-methoxy-6-methylpyridin-3-yl)-3-methyl-2,4,12,13-tetrahydro-11H-5,7-(azenometheno)dipyrazolo[3,4-b:5′,1′-g][1]oxa[4,6,8]triazacycloundecine] | 0.57 nM | 0.33 nM | Rate of metabolism classification (hepatocyte CLint) [4]: moderate to high rate of metabolism
Cc1c2c(nn1-c1cccnc1C(C)(F)F)OCCCn1nc(Cl)c3cnc(nc31)N2 [Example 14, 8-Chloro-2-(2-(1,1-difluoroethyl)pyridin-3-yl)-3-methyl-2,4,12,13-tetrahydro-11H-5,7-(azenometheno)dipyrazolo[3,4-b:5′,1′-g][1]oxa[4,6,8]triazacycloundecine] | 14 nM | 1.5 nM | –
Cc1nc(C)c(-n2nc3c(c2C)Nc2ncc4c(Cl)nn(c4n2)CCCO3)cc1F [Example 15, 8-Chloro-2-(5-fluoro-2,6-dimethylpyridin-3-yl)-3-methyl-2,4,12,13-tetrahydro-11H-5,7-(azenometheno)dipyrazolo[3,4-b:5′,1′-g][1]oxa[4,6,8]triazacycloundecine] | 4 nM | 0.66 nM | –
COc1nc(C)ncc1-n1nc2c(c1C)Nc1ncc3c(Cl)nn(c3n1)CCCO2 [Example 22, 8-Chloro-2-(4-methoxy-2-methylpyrimidin-5-yl)-3-methyl-2,4,12,13-tetrahydro-11H-5,7-(azenometheno)dipyrazolo[3,4-b:5′,1′-g][1]oxa[4,6,8]triazacycloundecine] | 2.1 nM | – | IC50 (LRRK2 WT [2]): 0.6 nM
